In one assay the test system is GPIIb-GPIIIa complex. The assay is described as follows: Binding of 125I-trigramin to human platelets. Conditions: both ligands.
Assay [1] is described as follows: Hamster mesentery bleeding time during continuous intravenous infusion. It counts as in vivo, golden Syrian hamsters. Conditions: 2 ng/kg/min; one hamster; positive control. Here is the method: Female golden Syrian hamsters (90-150 g) were maintained on food and water ad libitum, but fasted overnight prior to their use in the present experiment. After the administration of anesthesia (65 mg/kg sodium pentobarbital, i.p.), the animals were shaved in preparation for surgery. The trachea was intubated with PE-100 polyethylene tubing to facilitate spontaneous breathing. Cannulation of the right femoral vein was performed to provide an intravenous route for supplemental anesthesia as well as for the administration of various control and experiment agents. A catheter was introduced into the right carotid artery for the continuous monitoring of arterial blood pressure, and a rectal temperature probe was inserted. […]
The shaved abdomen was opened by a mid-line incision and a portion of the small intestine was exteriorized and draped over a lucite pedestal. […] Bleeding was observed through Zeiss dissecting microscope (20 X) and bleeding time was recorded from the time of the cut until the cessation of bleeding by the formation of a hemostatic plug. Each animal was used as its own control with bleeding time determined both during the infusion of saline and the selected experimental agent. […] Four additional animals were infused with trigramin while arterial blood pressure was continuously monitored to determine if it had any direct effect on systemic blood pressure. […]

This is an account of results in patent EP0317053B1, “Trigramin- a platelet aggregation inhibiting polypeptide” (Temple University of the Commonwealth System of Higher …, priority 1987, dated 1989).

Where no end group is shown, it is not given here.

Consider GQQHHLGGAKQAGDV, for which, in the assay on GPIIb-GPIIIa complex, the “inhibition of the binding of ¹²⁵I-trigramin and of ¹²⁵I-fibrinogen to human platelets” value is on record as “inhibited”.

Take `CC#CCC(C)[C@H](O)/C=C/[C@@H]1[C@H]2C/C(=C/CCCC(=O)O)C[C@H]2C[C@H]1O` (some centres unmarked) [Iloplrost]: the “time after the completion of the infusion until bleeding ceased” value in assay [1] was “approximately 9 minutes”.
